For this assay, the system named is HCV genotype 1b replicon cells (Huh-luc). Kind of assay: HCV 1b replicon combination study (luciferase, MacSynergy II analysis). The format is cell-based. The note with it: for Interaction: combination of Compound 1 and Compound 2, MacSynergy II. The procedure:
HCV genotype 1b replicon cells (Huh-luc) were obtained from Reblikon (Mainz, Germany). The replicon in these cells is designated I389luc-ubi-neo/NS3-3′/ET and encodes a selectable resistance marker (neomycin phosphotransferase) as well as the firefly luciferase reporter gene. Huh-luc cells were maintained in Dulbecco's Modified Eagle's Medium (DMEM; GIBCO, Carlsbad, Calif.) supplemented with 10% fetal bovine serum (FBS; Hyclone, Logan, Utah) and 0.5 mg/mL of G-418 (GIBCO). Cells were passaged twice a week and maintained at subconfluent levels.
Replicon cells were seeded in 96-well plates at a density of 5×10^3 cells per well in 100 μL of DMEM culture medium, excluding G-418. Compounds 1 and 2 were serially diluted 1:3 in 100% DMSO (Sigma). These serial dilutions were added to the cells at a 1:200 dilution to achieve a final concentration of 0.5% DMSO in a total volume of 200 μL. Plates were incubated at 37° C. for 3 days, after which culture media were removed and cells were lysed and assayed for luciferase activity using a commercial luciferase assay (Promega, Madison, Wis.). HCV replication levels in drug-treated samples were expressed as a percentage of those in untreated controls (defined as 100%), and data were fit to the logistic dose response equation y=a/(1+(x/b)c) using XLFit4 software (IDBS, Emeryville, Calif.). EC50 values were calculated from the resulting equations as described previously (Delaney, W. E., et al., Antimicrobial Agents Chemotherapy, 45(6):1705-1713 (2001)). Replicon cells were seeded in 96-well plates at a density of 5×10^3 cells per well in 100 μL of culture medium. Compounds 1 and 2 were serially diluted in 100% DMSO as described above and added in a matrix format to 96-well plates, achieving a defined set of different drug concentrations and ratios in a final volume of 200 μL and a final DMSO concentration of 0.5%. […] Cells were incubated for three days and analyzed for luciferase expression as indicated above. […]
The calculated volumes of surface deviations are expressed in nM^2%. […]
(In antiviral work, replicon cells carry a viral genome segment that copies itself.)

Molecules are shown by their SMILES.

Consider `CC(C)(C)NC(=O)N[C@H](C(=O)N1C[C@H]2[C@@H]([C@H]1C(=O)NC(CC1CCC1)C(=O)C(N)=O)C2(C)C)C(C)(C)C` (stereo partly drawn) [Compound 2, (1R,2S,5S)-3-[N-(N-tert-Butylcarbamoyl)-3-methyl-L-valyl]-N-(2-cyclobutyl-1-oxamoylethyl)-6,6-dimethyl-3-azabicyclo[3.1.0]hexane-2-carboxamide], for which the Interaction result is reported as “Moderate synergy”. Besides, the “Antagonism Volume” value (in combination with Compound 1, 3 days, mean ± SD of two or three independent experiments in triplicate) was −8.0 ± 13.6 nM^2.

Take `Fc1ccccc1-c1nc2ccn(Cc3ccc(-c4ccc(C(F)(F)F)cc4C(F)(F)F)nn3)cc-2n1` [Compound 1, 5-({6-[2,4-bis(trifluoromethyl)phenyl]pyridazin-3-yl}methyl)-2-(2-fluorophenyl)-5H-imidazo[4,5-c]pyridine]: the Interaction result is on record as “moderate synergistic interaction”.

(Values after US20100324060A1, “PHARMACEUTICAL COMPOSITIONS USEFUL FOR TREATING HCV” (Gilead Sciences, Inc., priority 2009, published 2010).)
